Earlier results in patent publication US20060134226A1, “Compositions useful to treat ocular neovascular diseases and macular degeneration” (priority 2004, published 2006).
Values belong to the compound of their own block, whether it stands above or below them.

What was measured:
[1] = in vivo
[2] = oral dose of 600 mg tid, long periods of time, patients with chronic bronchitis and emphysema
[3] = consumed daily
[4] = system: macular degeneration changes; conditions: 80 mg of zinc, versus placebo
[5] = about 200 mg dosage of zinc per day
[6] = in vivo; remark: listed apart in the source
[7] = not given; remark: listed apart in the source

Compound: CC(=O)Oc1c(C)c(C)c2c(c1C)CC[C@@](C)(CCC[C@H](C)CCC[C@H](C)CCCC(C)C)O2 (racemic) [dl-alpha tocopheryl acetate]
level at which no adverse effects have been observed [1]: ≤ 800 mg

dose excreted in the urine (after 24 hours): approximately 22% | mean plasma half-life (humans): about 1.35 hours | absorption of radiolabelled NAC (humans, one hour after administration): rapidly absorbed
Compound: CC(=O)N[C@@H](CS)C(=O)O [NAC, N-acetylcysteine]
tolerability [2]: well tolerated

Compound: O=C1O[C@H]([C@@H](O)CO)C(O)=C1O [vitamin C, ascorbic acid]
daily intake without any known adverse effects [3]: ≥ 1,000 mg

Compound: [Zn] [zinc]
retarding macular degeneration changes [4]: significantly better than placebo | side effects [5]: potential side effects such as anemia

Compound: beta carotene [beta-carotene]
efficiency of conversion to vitamin A in the body [6]: approximately 50% | risk among male smokers ([7]; 20 mg/day of beta-carotene): increased risk of lung cancer | risk in men with previous myocardial infarction ([7]; 20 mg/day of beta-carotene): increased risk of fatal coronary heart attacks | dosage level with no observed adverse effects ([7]; healthy, non-smokers): ≤ 25 mg per day
